Like-named read-outs stand apart in the source and are kept apart here.
Tested on: HIV1 IIIb
Experiment: microbe, parasite or virus in culture
Format: cell-based
Conditions: Human immunodeficiency virus 1, IIIB; for viability at 10 µg/mL: 10 ug/ml; for viability at 0.1 µg/mL: 0.1 ug/ml; for viability at 1 µg/mL: 1 ug/ml; for viability at 100 µg/mL: 100 ug/ml; for viability at 4.07 µg/mL: 4.07 ug/ml; for viability at 34.6 µg/mL: 34.6 ug/ml; for viability at 29 µg/mL: 29 ug/ml; for viability at 24.8 µg/mL: 24.8 ug/ml; for viability at 4.7 µg/mL: 4.7 ug/ml, virus kill 22.0%
Excerpt: In-vitro Screening Anti--HIV XTT Assay
This assay, which is available to the public by the National Cancer Institute, utilizes colorimetry based on the production of a colored formazin from a tetrazolium salt by viable cells, to develop a safe, rapid and quantitative measure of HIV cytopathology. The assay is a modification of the previously described screening method for the detection of anti-tumor drug cytotoxicity (D. A. Scudiero, et al, Cancer Res, 48, 4827-4833 (1988)). It involves the plating of susceptible human "host" cells with and without virus in microculture plates, adding various concentrations of the respective test compounds, incubating the plates for seven days, during which time infected, non-drug treated control cells are largely or totally destroyed by the virus. The number of remaining viable cells are determined utilizing a calorimetric endpoint. A beneficial antiviral effect is indicated by a response % grater than the virus kill %, with 100% being optimal.
Anti-viral effect: Response (Viable Cells, determined by colorometric
absorbance of formazan dye produced) as % of uninfected controls
Virus Source: HIV1 IIIb; C, Virus producing H9 cells; V, cell free virus
Virus Kill: Infected untreated cells as % of uninfected cell controls
*: Culture redosed with compound after 3 days

[1] = H9, 168 h, read-out: Antiviral Effect (viable cells as % of uninfected controls), run 1, source C (virus producing H9 cells), virus kill 21.0%

CCCCCCCCCCC[C@@H]1O[C@@H]1C(=O)O (relative stereo) [Example 19, (2S*-cis)-3-Undecyloxiranecarboxylic Acid]
viability at 10 µg/mL (168 h, read-out: Antiviral Effect (viable cells as % of uninfected controls), run 4, source V (cell free virus), virus kill 57.0%): 63.9% | viability at 10 µg/mL (168 h, read-out: Antiviral Effect (viable cells as % of uninfected controls), run 5, source V (cell free virus), virus kill 26.0%): 38.8% | viability at 0.1 µg/mL (168 h, read-out: Antiviral Effect (viable cells as % of uninfected controls), run 6, source V (cell free virus), virus kill 19.0%): 27.6% | viability at 1 µg/mL (168 h, read-out: Antiviral Effect (viable cells as % of uninfected controls), run 7*, source V (cell free virus), virus kill 25.0%, culture redosed with compound after 3 days): 12.5% | viability at 1 µg/mL [1]: 22.6% | viability at 10 µg/mL (H9, 168 h, read-out: Antiviral Effect (viable cells as % of uninfected controls), run 2, source C (virus producing H9 cells), virus kill 15.0%): 55.7% | viability at 1 µg/mL (H9, 168 h, read-out: Antiviral Effect (viable cells as % of uninfected controls), run 3, source C (virus producing H9 cells), virus kill 13.0%): 11.6%

CCCCCCCCCCC[C@H]1O[C@@H]1C(=O)O (relative stereo) [Example 20, (2S*-trans)-3-Undecyloxiranecarboxylic Acid]
viability at 100 µg/mL (168 h, read-out: Antiviral Effect (viable cells as % of uninfected controls), run 6, source V (cell free virus), virus kill 55.0%): 75.7% | viability at 100 µg/mL (168 h, read-out: Antiviral Effect (viable cells as % of uninfected controls), run 7, source V (cell free virus), virus kill 55.0%): 84.3% | viability at 100 µg/mL (168 h, read-out: Antiviral Effect (viable cells as % of uninfected controls), run 8, source V (cell free virus), virus kill 24.0%): 40.2% | viability at 100 µg/mL (168 h, read-out: Antiviral Effect (viable cells as % of uninfected controls), run 9, source V (cell free virus), virus kill 24.0%): 72.5% | viability at 4.07 µg/mL (168 h, read-out: Antiviral Effect (viable cells as % of uninfected controls), run 10, source V (cell free virus), virus kill 25.0%): 45.5% | viability at 4.07 µg/mL (168 h, read-out: Antiviral Effect (viable cells as % of uninfected controls), run 11*, source V (cell free virus), virus kill 23.0%, culture redosed with compound after 3 days): 87.4% | viability at 10 µg/mL (H9, 168 h, read-out: Antiviral Effect (viable cells as % of uninfected controls), run 1, source C (virus producing H9 cells), virus kill 18.0%): 22.6% | viability at 10 µg/mL (H9, 168 h, read-out: Antiviral Effect (viable cells as % of uninfected controls), run 2, source C (virus producing H9 cells), virus kill 14.0%): 59.5% | viability at 100 µg/mL (H9, 168 h, read-out: Antiviral Effect (viable cells as % of uninfected controls), run 3, source C (virus producing H9 cells), virus kill 14.0%): 60.9% | viability at 100 µg/mL (H9, 168 h, read-out: Antiviral Effect (viable cells as % of uninfected controls), run 4, source C (virus producing H9 cells), virus kill 10.0%): 10% | viability at 100 µg/mL (H9, 168 h, read-out: Antiviral Effect (viable cells as % of uninfected controls), run 5, source C (virus producing H9 cells), virus kill 10.0%): 10.2%

CCCCCCCCC[C@@H]1O[C@@H]1C(=O)O [Example 22, (2-S-cis)-3-Nonyloxiranecarboxylic Acid]
viability at 34.6 µg/mL (168 h, read-out: Antiviral Effect (viable cells as % of uninfected controls), run 8, source V (cell free virus), virus kill 54.0%): 85.5% | viability at 29 µg/mL (168 h, read-out: Antiviral Effect (viable cells as % of uninfected controls), run 9, source V (cell free virus), virus kill 55.0%): 68.5% | viability at 34.6 µg/mL (168 h, read-out: Antiviral Effect (viable cells as % of uninfected controls), run 10, source V (cell free virus), virus kill 26.0%): 40.3% | viability at 29 µg/mL (168 h, read-out: Antiviral Effect (viable cells as % of uninfected controls), run 11, source V (cell free virus), virus kill 33.0%): 41.9% | viability at 24.8 µg/mL (168 h, read-out: Antiviral Effect (viable cells as % of uninfected controls), run 12, source V (cell free virus), virus kill 30.0%): 23.1% | viability at 24.8 µg/mL (168 h, read-out: Antiviral Effect (viable cells as % of uninfected controls), run 13*, source V (cell free virus), virus kill 20.0%, culture redosed with compound after 3 days): 26.6% | viability at 10 µg/mL [1]: 50.1% | viability at 0.1 µg/mL (H9, 168 h, read-out: Antiviral Effect (viable cells as % of uninfected controls), run 2, source C (virus producing H9 cells), virus kill 20.0%): 25.6% | viability at 0.1 µg/mL (H9, 168 h, read-out: Antiviral Effect (viable cells as % of uninfected controls), run 3, source C (virus producing H9 cells), virus kill 8.0%): 9.5% | viability at 34.6 µg/mL (H9, 168 h, read-out: Antiviral Effect (viable cells as % of uninfected controls), run 4, source C (virus producing H9 cells), virus kill 16.0%): 25.9% | viability at 29 µg/mL (H9, 168 h, read-out: Antiviral Effect (viable cells as % of uninfected controls), run 5, source C (virus producing H9 cells), virus kill 13.0%): 18.5% | viability at 34.6 µg/mL (H9, 168 h, read-out: Antiviral Effect (viable cells as % of uninfected controls), run 6, source C (virus producing H9 cells), virus kill 14.0%): 12.8% | viability at 2.9 µg/mL (H9, 168 h, read-out: Antiviral Effect (viable cells as % of uninfected controls), run 7, 2.9 ug/ml, source C (virus producing H9 cells), virus kill 16.0%): 11.5%

COC(=O)[C@@H]1O[C@@H]1COCc1ccccc1 [Example 25, Methyl (2R-cis)-3-(benzyloxymethyl)oxirane Carboxylate]
viability at 10 µg/mL (168 h, read-out: Antiviral Effect (viable cells as % of uninfected controls), run 4, source V (cell free virus), virus kill 55.0%): 46.5% | viability at 1 µg/mL (168 h, read-out: Antiviral Effect (viable cells as % of uninfected controls), run 5, source V (cell free virus), virus kill 27.0%): 49% | viability at 4.7 µg/mL (168 h, read-out: Antiviral Effect (viable cells as % of uninfected controls), run 6, source V (cell free virus)): 25.6% | viability at 4.7 µg/mL (168 h, read-out: Antiviral Effect (viable cells as % of uninfected controls), run 7*, source V (cell free virus), culture redosed with compound after 3 days): 28.5% | viability at 100 µg/mL (H9, 168 h, read-out: Antiviral Effect (viable cells as % of uninfected controls), run 1, source C (virus producing H9 cells), virus kill 20.0%): 28.6% | viability at 100 µg/mL (H9, 168 h, read-out: Antiviral Effect (viable cells as % of uninfected controls), run 2, source C (virus producing H9 cells), virus kill 13.0%): 19.5% | viability at 10 µg/mL (H9, 168 h, read-out: Antiviral Effect (viable cells as % of uninfected controls), run 3, source C (virus producing H9 cells), virus kill 11.0%): 12.3%

COC(=O)[C@H]1O[C@H]1COCc1ccccc1 [Example 26, Methyl(2S-cis)-3-(benzyloxymethyl)oxirane carboxylate]
viability at 10 µg/mL (168 h, read-out: Antiviral Effect (viable cells as % of uninfected controls), run 6, source V (cell free virus), virus kill 54.0%): 58.7% | viability at 100 µg/mL (168 h, read-out: Antiviral Effect (viable cells as % of uninfected controls), run 7, source V (cell free virus), virus kill 54.0%): 81.3% | viability at 1 µg/mL (168 h, read-out: Antiviral Effect (viable cells as % of uninfected controls), run 8, source V (cell free virus), virus kill 23.0%): 19.8% | viability at 100 µg/mL (168 h, read-out: Antiviral Effect (viable cells as % of uninfected controls), run 9, source V (cell free virus), virus kill 23.0%): 23.7% | viability at 487 µg/mL (168 h, read-out: Antiviral Effect (viable cells as % of uninfected controls), run 10, 487 ug/ml, source V (cell free virus), virus kill 30.0%): 28.1% | viability at 0.487 µg/mL (168 h, read-out: Antiviral Effect (viable cells as % of uninfected controls), run 11*, 0.487 ug/ml, source V (cell free virus), virus kill 25.0%, culture redosed with compound after 3 days): 26.6% | viability at 10 µg/mL (H9, 168 h, read-out: Antiviral Effect (viable cells as % of uninfected controls), run 1, source C (virus producing H9 cells), virus kill 17.0%): 20.8% | viability at 10 µg/mL (H9, 168 h, read-out: Antiviral Effect (viable cells as % of uninfected controls), run 2, source C (virus producing H9 cells), virus kill 13.2%): 39.4% | viability at 100 µg/mL (H9, 168 h, read-out: Antiviral Effect (viable cells as % of uninfected controls), run 3, source C (virus producing H9 cells), virus kill 13.2%): 54% | viability at 10 µg/mL (H9, 168 h, read-out: Antiviral Effect (viable cells as % of uninfected controls), run 4, source C (virus producing H9 cells), virus kill 12.0%): 13.8% | viability at 100 µg/mL (H9, 168 h, read-out: Antiviral Effect (viable cells as % of uninfected controls), run 5, source C (virus producing H9 cells), virus kill 12.0%): 16.3%

— patent US6153589A, “2,3-epoxy alcohols, acids and derivatives as anti retroviral chemotherapeutic agents” (The United States of America as represented by the …, priority 1992, dated 2000)
